Earlier results as cited in US20120095087A1, “ENHANCED PRODUCTS BY SUSTAINABLE PROCESSES FOR MEDICINAL USE” (priority 2010, published 2012).

How the values were obtained:
CB2 receptors = CB2 receptors (Homo sapiens, UniProt P34972)
GPR55 = GPR55 (Homo sapiens, UniProt Q9Y2T6); conditions: putative new cannabinoid receptor
5-HT1A receptor = molecular target: T1, 5-HT1A receptor (Homo sapiens, UniProt P08908)
T1 sequence (P08908 1-422): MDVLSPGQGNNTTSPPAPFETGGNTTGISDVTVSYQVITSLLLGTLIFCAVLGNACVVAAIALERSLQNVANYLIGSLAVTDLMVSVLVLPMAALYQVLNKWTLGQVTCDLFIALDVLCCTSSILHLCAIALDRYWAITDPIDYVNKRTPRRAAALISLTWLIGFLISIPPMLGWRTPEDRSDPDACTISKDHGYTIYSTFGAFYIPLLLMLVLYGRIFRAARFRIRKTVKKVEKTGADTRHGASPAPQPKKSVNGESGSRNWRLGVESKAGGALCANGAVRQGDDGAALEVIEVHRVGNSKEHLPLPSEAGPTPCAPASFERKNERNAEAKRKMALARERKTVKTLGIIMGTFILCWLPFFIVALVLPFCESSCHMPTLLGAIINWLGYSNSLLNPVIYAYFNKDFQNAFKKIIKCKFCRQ

[1] = animal tests
cancer cell growth = conditions: low potency in non-cancer cells
gene ID1 = conditions: in vitro

GPR55, sequence (Q9Y2T6 whole entry, species assumed): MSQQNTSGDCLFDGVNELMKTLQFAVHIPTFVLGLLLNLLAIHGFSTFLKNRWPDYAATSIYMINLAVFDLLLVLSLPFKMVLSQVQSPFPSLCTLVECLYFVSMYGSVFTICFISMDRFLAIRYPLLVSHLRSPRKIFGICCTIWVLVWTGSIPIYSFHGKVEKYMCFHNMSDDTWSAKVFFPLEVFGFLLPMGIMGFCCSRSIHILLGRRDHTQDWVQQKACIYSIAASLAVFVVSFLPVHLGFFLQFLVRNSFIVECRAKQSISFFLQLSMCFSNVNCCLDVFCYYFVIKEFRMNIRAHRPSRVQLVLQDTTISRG
CB2 receptors, sequence (P34972 whole entry): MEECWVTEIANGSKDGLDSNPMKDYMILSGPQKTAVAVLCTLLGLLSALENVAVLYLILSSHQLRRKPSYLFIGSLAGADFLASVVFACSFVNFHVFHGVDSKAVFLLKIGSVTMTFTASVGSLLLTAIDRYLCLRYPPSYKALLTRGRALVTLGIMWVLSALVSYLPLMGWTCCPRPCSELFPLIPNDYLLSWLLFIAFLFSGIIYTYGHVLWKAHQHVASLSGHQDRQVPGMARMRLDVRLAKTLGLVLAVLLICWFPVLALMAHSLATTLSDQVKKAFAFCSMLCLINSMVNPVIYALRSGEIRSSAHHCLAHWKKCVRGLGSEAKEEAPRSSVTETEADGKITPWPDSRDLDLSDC

| Compound | affinity for CB2 receptors (CB2 receptors) | action at GPR55 (GPR55) | action at 5-HT1A receptor (5-HT1A receptor) | sedative effects [1] | cancer cell growth (cancer cell growth) | activity of the gene ID1 (gene ID1) | potency relative to THC |
| --- | --- | --- | --- | --- | --- | --- | --- |
| C=C(C)[C@@H]1CCC(C)=C[C@H]1c1c(O)cc(CCCCC)cc1O [Cannabidiol, cannabidiol] | no affinity | antagonist | agonist | sedative effects | inhibit cancer cell growth | downregulates |  |
| CCCCCCC(C)(C)c1cc(O)c2c(c1)OC(C)(C)[C@@H]1CC=C(CO)C[C@@H]21 [HU-210] |  |  |  |  |  |  | about 100 times |
